The text below walks through data of patent US7834040B2, “Isoxazolic derivative to relieve neuropathic pain” (Zambon S.p.A., priority 2004, dated 2010).

The test system of test [1] is neuropathic pain caused by the ligament of the rat's spinal nerve (SNL). The experiment in a line: Mechanical allodinia in the SNL model of neuropathic pain (ligature of the spinal nerve). In kind it is in vivo, male rats of Wistar strain. The text has this:
The effectiveness of the compound of formula (I) has been tested experimentally in two different models of neuropathic pain caused by chronic constrictive lesion of the sciatic nerve of the rat's hind leg (CCI) and by the ligament of the rat's spinal nerve (SNL), according to the procedure reported in the following experimental part. To a second group of male rats of Wistar strain a peripheral neuropathy has been induced by means of ligature of the spinal nerve according to the modified method described by Kim and Chung and which is constituted by the ligature of two (L5-L6) of the three spinal nerves which form the sciatic nerve (Pain 50:355-363, 1992). In order to evaluate the neuropathic pain, the development of mechanical allodinia was measured by calculating the average of the pain perception thresholds in the animals' legs in response to mechanical stimuli, following the method described by Chaplan et al. (Journal Neurosci. Method. 53:55-63, […]). In the first group of experiments the measurements have been carried out before and 14 days after the ligature of the […] (CCI). In the second group of experiments the same parameter has been similarly evaluated before and 14 days after the ligature of the spinal nerve (SNL). In both groups, the mechanical allodinia threshold has been measured before (pre-treatment) and 0.5, 1, 2, 4 and 6 hours after treatment by oral route with the compound of formula (I) at doses of 3, 30 and 300 mg/kg.

Test [2] deals with neuropathic pain caused by chronic constrictive lesion of the sciatic nerve of the rat's hind leg (CCI). The experiment in a line: Mechanical allodinia in the CCI model of neuropathic pain (chronic constrictive lesion of the sciatic nerve). In kind it is in vivo, male rats of Wistar strain. An excerpt: The effectiveness of the compound of formula (I) has been tested experimentally in two different models of neuropathic pain caused by chronic constrictive lesion of the sciatic nerve of the rat's hind leg (CCI) and by the ligament of the rat's spinal nerve (SNL), according to the procedure reported in the following experimental part. To a group of male rats of Wistar strain a peripheral neuropathy has been induced by means of ligature of the sciatic nerve (CCI) according to the Bennet and Xie model (Pain 33:87-107, 1988). In order to evaluate the neuropathic pain, the development of mechanical allodinia was measured by calculating the average of the pain perception thresholds in the animals' legs in response to mechanical stimuli, following the method described by Chaplan et al. (Journal Neurosci. Method. 53:55-63, […]). In the first group of experiments the measurements have been carried out before and 14 days after the ligature of the […] (CCI). In the second group of experiments the same parameter has been similarly evaluated before and 14 days after the ligature of the spinal nerve (SNL). In both groups, the mechanical allodinia threshold has been measured before (pre-treatment) and 0.5, 1, 2, 4 and 6 hours after treatment by oral route with the compound of formula (I) at doses of 3, 30 and 300 mg/kg.

The test system of another test is neuropathic pain. Conditions: Rashid et al., J. Pharmacol. Exp. Ther. 303:226-231, 2002; cited from earlier work.
Where [3] appears, read: oral route, 3, 30 and 300 mg/kg, 0.5-6 hours after treatment, 14 days after ligature.

Entries after “also recorded” stand apart in the source; their conditions may differ.

As to `Cc1cc(C(=O)NCCCC(=O)O)on1` [compound of formula (I)], the “dose from which the antiallodinic effect is statistically significative” value in test [1] (oral route) and in test [2] (oral route) was at least 3 mg/kg throughout. Moreover, the “time after treatment up to which the antiallodinic effect is detected” value in test [1] (oral route) and in test [2] (oral route) was “up to 6 hours” each time. Further, the “mechanical allodinia (pain perception threshold to mechanical stimuli)” value in test [1] (setting [3]) and in test [2] (setting [3]) was “reduced in a dose-depending way the mechanical allodinia; also recorded: marked reduction in the neuropathic allodinia” throughout.
Turning to `CC[C@H](C(N)=O)N1CCCC1=O` [levitiracetam], the “analgesic effect with respect to the neuropathic pain” value (“analgesic effect” below) in the test on neuropathic pain is on record as “do not produce significant analgesic effects”.
Regarding `Cc1cccc(C)c1NC(=O)CN1CCCC1=O` [nefiracetam], the “analgesic effect” value in the test on neuropathic pain is “powerful analgesic effect”.
For `NC(=O)CN1CC(O)CC1=O` (stereo not shown) [oxiracetam], the “analgesic effect” value in the test on neuropathic pain was “do not produce significant analgesic effects”.
Regarding `NC(=O)CN1CCCC1=O` [piracetam], the “analgesic effect” value in the test with neuropathic pain is on record as “do not produce significant analgesic effects”.
